Data set [1] relates to human malignant glioma cells U87, A172 and U251. The data set can be described thus: MTT cytotoxicity assays on U87, A172 and U251 cells (stated jointly). Format: cell-based. The protocol: J. of Immunological Methods 65: 55 63, 1983. […] Invasion inhibition may be studied by Boyden chambers.
Then U87, A172 and U251 cells were treated with dimethyl celecoxib bisPOH carbamate (POH-DMC) (e.g., synthesized by the method in Example 1), and the MTT cytotoxicity assays performed (FIG. 2).
Then TMZ-resistant glioma cell lines U87, A172 and U251 cells were treated with temozolomide POH carbamate (POH-TMZ) (e.g., synthesized by the method in Example 3).
Background: Tetrazolium dyes change colour on reduction, which living cells bring about.

Data set [2] concerns USC-04 glioma cancer stem cells. The experiment in a line: MTT cytotoxicity assay, USC-04 glioma cancer stem cells. It counts as cell-based. Particulars: USC-04; increasing concentrations (TMZ 0-400 uM; POH 0-2 mM). The text has this:
(§1) Cancer Lett. 2011 Mar. 28; 302(2):100-8.

Data set [3] relates to TMZ sensitive (U251) cells. The data set can be described thus: Colony forming assay, TMZ sensitive U251 cells. Format: cell-based, human. Particulars: TMZ sensitive U251 cells. The protocol:
(§2) Colony forming assays were carried out after cells were treated with TMZ alone, POH alone, and the TMZ-POH conjugate. […] Cancer Lett. 2011 Mar. 28; 302(2):100-8.

For data set [4], the system named is USC-02 glioma cancer stem cells. The data set can be described thus: MTT cytotoxicity assay, USC-02 glioma cancer stem cells. It counts as cell-based. Particulars: USC-02; increasing concentrations (TMZ 0-400 uM; POH 0-2 mM).
From the text: as §1

Data set [5] deals with TMZ resistant (U251TR) U251 cells. The data set can be described thus: Colony forming assay, TMZ resistant U251TR cells. It counts as cell-based, human. The protocol: as §2
The test system of a further data set is UV-B exposed skin. The data set can be described thus: UV-B induced skin damage in SKH-1 hairless mice. It counts as in vivo, mouse. Conditions: topical post exposure. The protocol:
(§3) FIG. 23 illustrates the simulation of sunlight by irradiation with UVB lamps (310 nm). The irradiation was conducted in a phototoxicity testing chamber and fitted with a UV-B lamp providing with a spectral output of approximately 310 nm. The source of UVR was a short-wavelength UV lamp (VWR. Radnor, PA). The peak spectral output of this lamp was approximately 310 nm, with no energy detectable below 260 nm, approximately 0.6% between 260 and 280 nm (UV-C), 72.7% between 280 and 320 nm (UV-B), and 26.7% between 320 and 400 nm (UV-A). Radiation dosage of UV-B per irradiation was set at 54 mJ/cm^2 for the first week, 72 mJ/cm^2 for the second week, 90 mJ/cm^2 for the third week, and 108 mJ/cm^2 for the remaining weeks, as confirmed by a UV monitor. Each irradiation event was 10 minutes long.
POH-LA conjugate, linoleic acid, POH, and the additive combination of linoleic acid and POH were each suspended in glycerol:ethanol (90:10 vol/vol) to a final concentration of 10 nM with 50 μL and applied to each SKH-1 hairless mouse post UV-B exposure for treatment. The sunblock mouse was gently wiped on the exposure area with the sunblock towelette. […] In FIG. 23B, the mice were treated with the glycerol:ethanol vehicle only. In FIG. 23C, the mice were treated with POH. In FIG. 23D, the mice were treated with linoleic acid. In FIG. 23E, the mice were treated with an mixture of linoleic acid and POH. In FIG. 23F, the mice were treated with POH-LA conjugate. In FIG. 23G, the mice were treated with sunblock. The application of POH-LA conjugate to UV-B exposed tissue limits the amount of observable skin damage as compared to the untreated control (B) or the individual components of POH-LA conjugate either alone (POH—C and LA—D), in mixture (E), or with sunblock (G).
as §3, with “FIGS. 24A-D illustrates the” for “FIG. 23 illustrates the”, “UV lamp (VWR, Radnor, PA).” for “UV lamp (VWR. Radnor, PA).”, “second week, and 90 mJ/cm^2” for “second week, 90 mJ/cm^2”, “third week, as confirmed” for “third week, and 108 mJ/cm^2 for the remaining weeks, as confirmed”, “UV monitor.” for “UV monitor. Each irradiation event was 10 minutes long.”
POH-LA conjugate (FIG. 24A), linoleic acid (FIG. 24B), POH (FIG. 24C), and the additive combination of linoleic acid and POH (FIG. 24D) were each suspended in glycerol:ethanol (90:10 vol/vol) to a final concentration of 10 nM with 50 μL applied to each mouse post UV-B exposure for treatment. The application of POH-LA conjugate to UV-B exposed tissue limits the amount of observable skin damage as compared the individual components of POH-LA conjugate either alone or in mixture.
as §3, with “This example” for “FIG. 23”, “nm)” for “nm). The irradiation”, “(VWR,” for “(VWR.”, “monitor.” for “monitor. Each irradiation event was 10 minutes long.”
POH-LA conjugate, linoleic acid, POH, and the additive combination of linoleic acid and POH were each suspended in glycerol:ethanol (90:10 vol/vol) to a final concentration of 10 nM with 50 μL applied to each mouse post UV-B exposure for treatment. […]

Another data set concerns IL-6. The experiment in a line: Serum IL-6 following UV exposure. It counts as in vivo, mouse. The protocol: SKH-1 hairless mice were treated with 10 mg/kg POH-LA conjugate freshly prepared daily. The POH-LA conjugate was formulated in glycerol:ethanol (90:10) while the control animals received the glycerol:ethanol vehicle only or the commercially available sunblock (Well & Good Sun Protection Wipes SPF 15). Additional test groups were treated with POH formulated in the glycerol:ethanol vehicle or linoleic acid formulated in the glycerol:ethanol vehicle. 50 μL of each formulation was placed on a area 1 cm^2 area that was exposed to the UV light. The mice were treated with their respective formulations after exposure to the UV light. In FIG. 22A, the mouse was treated with sunblock. In FIG. 22B, the mouse was treated with POH. In FIG. 22C, the mouse was treated with linoleic acid. In FIG. 22D, the mouse was treated with POH-LA conjugate. […] The POH-LA conjugate, POH or linoleic acid solutions were gently spread on the skin surface and allowed to air dry. The sunblock mouse was gently wiped on the exposure area with the sunblock towelette. This exposure and treatment went on for a maximum of 10 weeks. Throughout the experimental period the animals were photographed and weighed. At the end of the experimental period the mice were photographed and euthanized, followed by skin and blood collection. Blood was analyzed for markers of inflammation and DNA recovered from the exposed area of the skin and analyzed for markers of DNA damage.
(§4) Furthermore, blood samples were taken from each mouse 4 hours after the last cutaneous treatment. About 0.5 mL of blood was collected by cardiac puncture […]. Serum was aliquoted in Eppendorf tubes and store at −80° C. as preparation for cytokine analyses. […]
(§5) Mice were treated with 10 mg/kg POH-LA conjugate freshly prepared daily. […] Blood was analyzed for markers of inflammation and DNA recovered from the exposed area of the skin and analyzed for markers of DNA damage.

A further data set relates to IL-1β. The data set can be described thus: Serum IL-1β following UV exposure. It counts as in vivo, mouse. The protocol: (§6) SKH-1 hairless mice were treated with 10 mg/kg POH-LA conjugate freshly prepared daily. The POH-LA conjugate was formulated in glycerol:ethanol (90:10) while the control animals received the glycerol:ethanol vehicle only or the commercially available sunblock (Well & Good Sun Protection Wipes SPF 15). Additional test groups were treated with POH formulated in the glycerol:ethanol vehicle or linoleic acid formulated in the glycerol:ethanol vehicle. 50 μL of each formulation was placed on a area 1 cm^2 area that was exposed to the UV light. The mice were treated with their respective formulations after exposure to the UV light. In FIG. 22A, the mouse was treated with sunblock. In FIG. 22B, the mouse was treated with POH. In FIG. 22C, the mouse was treated with linoleic acid. In FIG. 22D, the mouse was treated with POH-LA conjugate. In FIG. […]:ethanol vehicle only. The POH-LA conjugate, POH or linoleic acid solutions were gently spread on the skin surface and allowed to air dry. The sunblock mouse was gently wiped on the exposure area with the sunblock towelette. This exposure and treatment went on for a maximum of 10 weeks. Throughout the experimental period the animals were photographed and weighed. At the end of the experimental period the mice were photographed and euthanized, followed by skin and blood collection. Blood was analyzed for markers of inflammation and DNA recovered from the exposed area of the skin and analyzed for markers of DNA damage.
as §4, §5

In another data set the test system is TNF-α. The data set can be described thus: Serum TNF-α following UV exposure. Format: in vivo, mouse. The protocol:
as §6, §4, §5

The test system of a further data set is U87 human glioma cells. The experiment in a line: MTT cytotoxicity assay, U87 cells. Format: cell-based. Particulars: Homo sapiens, U-87 MG, U-87 cells, 48 hours. The text has this:
(§7) In vitro efficacy of the present composition can be determined using methods well known in the art. For example, the cytotoxicity of the present monoterpene (or sesquiterpene) and/or the therapeutic agents may be studied by MTT [3-(4,5-dimethylthiazol-2-yl)-2,5-diphenyl tetrazolium bromide] cytotoxicity assay. MTT assay is based on the principle of uptake of MTT, a tetrazolium salt, by metabolically active cells where it is metabolized into a blue colored formazan product, which can be read spectrometrically. J. of Immunological Methods 65: 55 63, 1983. The cytotoxicity of the present monoterpene (or sesquiterpene) derivative and/or the therapeutic agents may be studied by colony formation assay. Functional assays for inhibition of VEGF secretion and IL-8 secretion may be performed via ELISA. Cell cycle block by the present monoterpene (or sesquiterpene) derivative and/or the therapeutic agents may be studied by standard propidium iodide (PI) staining and flow cytometry. Invasion inhibition may be studied by Boyden chambers. In this assay a layer of reconstituted basement membrane, Matrigel, is coated onto chemotaxis filters and acts as a barrier to the migration of cells in the Boyden chambers. Only cells with invasive capacity can cross the Matrigel barrier. Other assays include, but are not limited to cell viability assays, apoptosis assays, and morphological assays. […]

In another data set the test system is LN229 human glioma cells. The experiment in a line: cells. Conditions: Homo sapiens, LN-229, 48 h. From the text: (§8) In vitro efficacy of the present composition can be determined using methods well known in the art. For example, the cytotoxicity of the present monoterpene (or sesquiterpene) and/or the therapeutic agents may be studied by MTT [3-(4,5-dimethylthiazol-2-yl)-2,5-diphenyl tetrazolium bromide] cytotoxicity assay. MTT assay is based on the principle of uptake of MTT, a tetrazolium salt, by metabolically active cells where it is metabolized into a blue colored formazan product, which can be read spectrometrically. J. of Immunological Methods 65: 55 63, 1983. The cytotoxicity of the present monoterpene (or sesquiterpene) derivative and/or the therapeutic agents may be studied by colony formation assay. Functional assays for inhibition of VEGF secretion and IL-8 secretion may be performed via ELISA. Cell cycle block by the present monoterpene (or sesquiterpene) derivative and/or the therapeutic agents may be studied by standard propidium iodide (PI) staining and flow cytometry. Invasion inhibition may be studied by Boyden chambers. In this assay a layer of reconstituted basement membrane, Matrigel, is coated onto chemotaxis filters and acts as a barrier to the migration of cells in the Boyden chambers. Only cells with invasive capacity can cross the Matrigel barrier. Other assays include, but are not limited to cell viability assays, apoptosis assays, and morphological assays.
(§9) To compare the cytotoxicity of Rolipram POH Carbamate (POH-Rolipram) (e.g., synthesized by the method in Example 5) with rolipram, […] inducing differentiation and apoptosis in glioma cells, A172, U87, U251 and LN229 human glioma cells were treated with either POH-Rolipram or rolipram for 48 hours.

For a further data set, the system named is A172 human glioma cells. The data set can be described thus: MTT cytotoxicity assay, A172 cells. Format: cell-based. Particulars: Homo sapiens, A-172 cells, 48 hours.
From the text: as §7

The subject of the next data set is U251 human glioma cells. The experiment in a line: MTT cytotoxicity assay, U251 cells.
From the text: as §8, §9
MTT cytotoxicity assays were carried out after cells were treated with the TMZ-POH conjugate. The MTT cytotoxicity assays were carried out as described in Chen T C, et al. Green tea epigallocatechin gallate enhances therapeutic efficacy of temozolomide in orthotopic mouse glioblastoma models. Cancer Lett. 2011 Mar. 28; 302(2):100-8.

Results on 4 compounds are retold here after patent US20240197891A1, “PHARMACEUTICAL COMPOSITIONS COMPRISING POH DERIVATIVES” (UNIVERSITY OF SOUTHERN CALIFORNIA, priority 2021, published 2024).

Consider `C=C(C)C1CC=C(COC(=O)N(C(=O)OCC2=CCC(C(=C)C)CC2)S(=O)(=O)c2ccc(-n3nc(C(F)(F)F)cc3-c3cc(C)ccc3C)cc2)CC1` (stereo not shown) [POH-DMC], for which, in data set [1], the “cytotoxicity / kill rates (MTT)” value is “much better cytotoxicity than DMC alone”.
`Cn1nnc2c(C(N)=O)ncn2c1=O` [TMZ, temozolomide]: the “cytotoxicity (MTT)” value in [2] and in data set [4] was “did not induce significant cytotoxicity” in each case. The “cytotoxicity (colony forming assay)” value in [3] is “demonstrated cytotoxicity”; in data set [5] it was “minimal cytotoxicity”. Also, the “cytotoxicity / kill rates (MTT)” value in [1] is “minimal cytotoxicity”.
Take `CCCCC/C=C\C/C=C\CCCCCCCC(=O)O` [linoleic acid]: the observable skin damage entry is reported as “displayed damage” in the data set on UV-B exposed skin (3 weeks of UV-B exposure and treatment); “displayed damage” in the data set with UV-B exposed skin (5 weeks of UV-B exposure and treatment). In the data set on IL-6, the IL-6 levels amounted to 18.3 ± 3.4 pg/mL. Moreover, the “IL-1β serum levels increase” value in the data set on IL-1β was found to be 8.3 ± 2.1 pg/mL. Moreover, the TNF-α levels in the data set with TNF-α came out at 126.9 ± 14.6 pg/mL.
The IC50 is the concentration that gives 50% inhibition. Read a low IC50 as greater potency. Take `COc1ccc(C2CNC(=O)C2)cc1OC1CCCC1` (stereo not shown) [rolipram, reference compound]: the IC50 in the data set on U87 human glioma cells was over 1000 µM; with LN229 human glioma cells it was over 100 µM; in the data set with A172 human glioma cells it was about 1000 µM; in the data set with U251 human glioma cells (Homo sapiens, U-251, 48 h), 170 µM. This compound registered a plateau cytotoxicity in the data set on U251 human glioma cells of 60%.
